Measurements reported in paper PMC12427625, “Heterochannels Kv(1.1-1.2)2 and Their Interactions with Pore Blockers” (Cells, 2025).
Where two headings read alike, the source gives them in different places. Bridge positions count the residues as written; N and C are the ends. Peptide text beside a SMILES is read from it.

How the values were obtained:
Kv1.2 [1] = experiment: Competitive binding, homotetrameric Kv1.2 channel (earlier data); conditions: Kv1.2 vs Kv1.1 (Table 2)
Kv1.1 [2] = experiment: Competitive binding, homotetrameric Kv1.1 channel (earlier data); conditions: Table 2 and data published previously [35]
Kv1.3 [3] = experiment: Ce4 activity on Kv1.3 (earlier data); conditions: Table 2 and data published previously [35]
Kv1.2 [4] = conditions: cited from earlier work; for Kd: Kv1.2, ref [35], read-out: Kap
Description: (§1) These properties were also similar to those reported by other investigators for the corresponding homotetrameric channels, Kv1.1 and Kv1.2. It was also shown that the Kd of the complexes between HgTx-G, a high-affinity fluorescent ligand for the Kv1.1 and Kv1.2 channels, and ...

Kv1.1 [5] = conditions: cited from earlier work; for Kd: Kv1.1, read-out: Kap
Description: as §1

[6] = target: T1, human heterochannels Kv(1.1-1.2)2 (Homo sapiens, UniProt P16389+Q09470, S369T/S371T); experiment: Competitive binding of peptide and HgTx-G to Kv(1.1-1.2)2 heterochannels; conditions: for fold lower activity compared to Ce1: Kv(1.1-1.2)2, vs Ce1; for affinity for Kv(1.1-1.2)2 in words: Kv(1.1-1.2)2, competitive binding with HgTx-G; for Kd: Kv(1.1-1.2)2 formed by K-Kv1.1-1.2, competitive displacement of 0.5 nM HgTx-G, complete medium, 1 h, Cheng-Prusoff, mean ± SEM of three independent experiments, read-out: apparent dissociation constant (Kap); for displacement of HgTx-G: 0.5 nM HgTx-G, 10 nM HgTx1 (Figure 1)
T1 construct: expressed in transfected cells; host or cells: mouse neuroblastoma Neuro-2a cells transfected with pmKate2-KCNA1-KCNA2
T1 sequence (Q09470 whole entry S369T): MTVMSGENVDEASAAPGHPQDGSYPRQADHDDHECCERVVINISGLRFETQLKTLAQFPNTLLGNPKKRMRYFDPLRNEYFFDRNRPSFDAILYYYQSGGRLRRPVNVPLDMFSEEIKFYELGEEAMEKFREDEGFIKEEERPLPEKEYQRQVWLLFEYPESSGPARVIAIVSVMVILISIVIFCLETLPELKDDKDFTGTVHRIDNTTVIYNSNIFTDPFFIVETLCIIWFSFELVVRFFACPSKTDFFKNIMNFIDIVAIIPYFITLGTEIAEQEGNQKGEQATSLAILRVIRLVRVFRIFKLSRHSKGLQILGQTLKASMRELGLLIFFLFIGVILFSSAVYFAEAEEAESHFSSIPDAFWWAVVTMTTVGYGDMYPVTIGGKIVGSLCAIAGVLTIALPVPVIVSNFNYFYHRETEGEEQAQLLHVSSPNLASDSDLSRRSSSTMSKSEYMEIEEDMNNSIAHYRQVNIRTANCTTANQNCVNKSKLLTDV
T1 sequence (P16389 2-499 S371T): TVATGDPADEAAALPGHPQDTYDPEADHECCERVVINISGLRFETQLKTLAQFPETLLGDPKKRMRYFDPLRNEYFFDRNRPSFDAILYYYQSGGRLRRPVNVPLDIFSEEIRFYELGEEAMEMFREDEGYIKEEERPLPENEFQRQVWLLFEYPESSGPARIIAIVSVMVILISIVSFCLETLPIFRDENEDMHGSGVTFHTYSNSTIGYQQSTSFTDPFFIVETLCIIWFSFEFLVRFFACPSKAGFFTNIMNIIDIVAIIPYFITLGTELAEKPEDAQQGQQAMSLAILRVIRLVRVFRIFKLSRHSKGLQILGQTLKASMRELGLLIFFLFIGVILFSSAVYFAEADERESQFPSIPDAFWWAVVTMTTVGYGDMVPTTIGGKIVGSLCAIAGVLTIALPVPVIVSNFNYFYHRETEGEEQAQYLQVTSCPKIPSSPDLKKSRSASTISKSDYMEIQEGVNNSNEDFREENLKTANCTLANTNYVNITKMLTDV
Description: To construct the gene encoding a fluorescent concatenated dimer mKate2-Kv1.1-Kv1.2 (K-Kv1.1-1.2), a cloning strategy was used, in which the C-terminus of the human Kv1.1 α-subunit was fused end-to-end to the N-terminus of the human Kv1.2 α-subunit via a short KL linker that corresponds to the HindIII restriction site. Here, we followed the design of the α-subunit concatemers proposed earlier. The previously obtained plasmids pmKate2-KCNA1 and pmKate2-KCNA2, which coded for mKate2-Kv1.1 (K-Kv1.1) and mKate2-Kv1.2 (K-Kv1.2) fusion proteins, were used for cloning. In these proteins, both human α-subunits Kv1.1 and Kv1.2 are N-terminally tagged with the red fluorescent protein mKate2 and harbor single mutations (S369T in Kv1.1, and S371T in Kv1.2) that improve the surface presentation of the homotetrameric channels. At first, pmKate2-KCNA1stopless was generated by amplification of the KCNA1 gene lacking TAA stop codon in a polymerase chain reaction (PCR) using a pair of oligonucleotide primers Kcna1-f1 (5′-[…]-3′) and Kcna1-Stop-r1 (5′-[…]-3′; BglII and HindIII sites are underlined). The obtained DNA fragment was hydrolyzed by BglII/HindIII restriction endonucleases and cloned into pmKate2-KCNA1 plasmid to substitute KCNA1 for KCNA1stopless. The obtained plasmid pmKate2-KCNA1stopless was further used as a vector to produce the KCNA1-KCNA2 dimer. For this, the KCNA2 gene was amplified in PCR using primers Kcna2-Hind-f1 (5′- […]-3′) and Kcna2-Sal-r1 ([…]-3′; HindIII, SalGI, and PstI sites are underlined; TAA stop codon is marked in bold) and cloned into HindIII/SalI sites of pmKate2-KCNA1stopless. The resulting pmKate2-KCNA1-KCNA2 plasmid encoded K-Kv1.1-1.2.
To analyze the binding of HgTx-G to heterochannels, HgTx-G (0.032–2 nM) was added to cells in the complete medium for 1 h. In the experiments with competitive binding, HgTx-G (0.5 nM) was added to cells, together with the studied peptide ([…]; 1.25–100 nM ChTx; 0.5–20 nM AgTx2, 2–10 nM MeKTx11-1, 0.063–1 nM Ce1, 0.063–1 nM Ce4, or 1 µM ScyTx), and incubated in the complete medium for 1 h.
Confocal microscopy measurements were carried out with the SP2 laser scanning confocal microscope (Leica Microsystems GmbH, Wetzlar, Germany), using the 63× water-immersion objective (HCX PL APO, NA = 1.2). Axial and lateral resolutions were 0.6 and 0.2 µm.
Fluorescence of proteins labeled with mKate2 was excited at 561 nm and detected in the 680–800 nm region. Fluorescence of HgTx-G was excited at 488 nm and recorded in the 495–540 nm region. The fluorescent probes of various cellular organelles were excited at 488 nm and detected in the 495–540 nm region.
Quantitative analysis of HgTx-G interaction with heterochannels was performed following the procedure developed previously. Briefly, confocal images of cells were used to calculate the ratio of the fluorescence intensity of HgTx-G bound to heterochannels to the fluorescence intensity of membrane-embedded heterochannels for each measured cell. This ratio was averaged over a sample of measured cells (20–30 cells) to obtain the Rav value and its standard deviation.
To characterize the affinity of unlabeled peptide for heterochannels, the competitive binding of this peptide and HgTx-G to heterochannels was measured at the constant concentration of HgTx-G (L) and increasing concentration (C) of the peptide. Rav data were calculated, plotted as a function of C, and fitted with the following equation:Rav(C) = Rav0/(1 + C/DC50)(2) where DC50 is the peptide concentration displacing 50% of HgTx-G from the complex with heterochannels, and Rav0 is Rav at C = 0.
Further, the Cheng–Prusoff equation was used to calculate the apparent dissociation constant (Kap) of the complex between the studied peptide and heterochannels:Kap = DC50/(1 + L/Kd)(3)
Three independent experiments were performed, and data on Kap were averaged and presented as mean ± SEM.

Kv1.2 [7] = tested on: Kv1.2; parameters: method as in PMID 9446567; conditions: HEK-293 cells; ref [14]; cited from earlier work
Kv1.3 [8] = tested on: Kv1.3; parameters: method as in PMID 9446567; conditions: HEK-293 cells; ref [14]; cited from earlier work
Kv1.1 [9] = tested on: Kv1.1; parameters: method as in PMID 9446567; conditions: HEK-293 cells; ref [14]; cited from earlier work
Kv1.6 = tested on: Kv1.6; parameters: method as in PMID 9446567; conditions: HEK-293 cells; ref [14]; cited from earlier work

SMILES | activity against Kv1.2 compared to Kv1.1 (Kv1.2 [1]) | selectivity: activity against Kv1.2 and Kv(1.1-1.2)2 higher than against Kv1.1 (Kv1.1 [2]) | selectivity: activity against Kv1.2 and Kv(1.1-1.2)2 higher than against Kv1.3 (Kv1.3 [3]) [times] | Kd (Kv1.2 [4]) [nM] | Kd (Kv1.1 [5]; ref [35]) [nM] | fold lower activity compared to Ce1 [6] | Kd (Kv1.1 [5]; ref [34]) [nM] | affinity for Kv(1.1-1.2)2 in words [6] | Kd [6] [nM] | affinity, 86Rb+ flux inhibition (Kv1.2 [7]) | affinity, 86Rb+ flux inhibition (Kv1.3 [8]) | affinity, 86Rb+ flux inhibition (Kv1.1 [9]) | affinity, 86Rb+ flux inhibition (Kv1.6) | displacement of HgTx-G from the complexes (Kv1.2 [4]; K-Kv1.2-1.2 and K-Kv1.2, ref [28],[29]) | displacement of HgTx-G from the complexes (Kv1.1 [5]; K-Kv1.1-1.1 and K-Kv1.1, ref [28],[29]) | displacement of HgTx-G ([6]; channels formed by K-Kv1.1-1.2) | displacement of HgTx-G ([6]; channels formed by K-Kv1.2-1.1)
CC[C@H](C)[C@H](NC(=O)[C@H](CCCCN)NC(=O)[C@H](Cc1ccc(O)cc1)NC(=O)[C@@H]1CSSC[C@@H]2NC(=O)[C@@H]3CCCN3C(=O)[C@H](CC(C)C)NC(=O)[C@H](CC(C)C)NC(=O)[C@@H]3CSSC[C@H](NC(=O)[C@H](CCCCN)NC(=O)CNC(=O)[C@H](CC(N)=O)NC(=O)[C@H](CCSC)NC(=O)[C@H](CSSC[C@H](NC(=O)[C@H](CCCCN)NC(=O)[C@@H](NC(=O)[C@H](CC(N)=O)NC(=O)[C@@H](NC(=O)[C@@H](NC(=O)[C@@H](N)[C@@H](C)O)[C@@H](C)CC)[C@@H](C)CC)C(C)C)C(=O)N[C@@H]([C@@H](C)O)C(=O)N[C@@H](CO)C(=O)N4CCC[C@H]4C(=O)N[C@@H](CCCCN)C(=O)N[C@@H](CCC(N)=O)C(=O)N3)NC(=O)[C@H](CCCCN)NC(=O)[C@H](C)NC(=O)CNC(=O)[C@H](C)NC(=O)[C@H](Cc3c[nH]cn3)NC(=O)[C@H]([C@@H](C)CC)NC(=O)CNC(=O)[C@H](Cc3ccc(O)cc3)NC(=O)[C@H]([C@@H](C)CC)NC(=O)[C@H](CCC(=O)O)NC(=O)[C@H](CCCCN)NC2=O)C(=O)N[C@@H](CCCCN)C(=O)N1)C(=O)O [Ce4] (H-TIINVKCTSPKQCLLPCKEIYGIHAGAKCMNGKCKCYKI-OH; disulfide 7-29, 13-34, 17-36; N-terminus and C-terminus assumed) | much higher activity against the Kv1.2 channel than against the Kv1.1 channel | more than 10,000 times | > 1000 | 0.03 ± 0.01 | > 300 | approximately threefold |  |  |  |  |  |  |  |  |  |  | 
CC[C@H](C)[C@H](NC(=O)[C@@H](NC(=O)[C@@H](N)[C@@H](C)O)C(C)C)C(=O)N[C@@H](CC(N)=O)C(=O)N[C@H](C(=O)N[C@@H](CCCCN)C(=O)N[C@H]1CSSC[C@@H]2NC(=O)[C@H](CCCCN)NC(=O)[C@H](C)NC(=O)CNC(=O)[C@H](C)NC(=O)[C@H](Cc3c[nH]cn3)NC(=O)[C@@H]3CCCN3C(=O)CNC(=O)[C@H](Cc3ccc(O)cc3)NC(=O)[C@H](CC(C)C)NC(=O)[C@H](CC(=O)O)NC(=O)[C@H](CCCCN)NC(=O)[C@@H]3CSSC[C@@H](C(=O)N[C@@H](Cc4ccc(O)cc4)C(=O)N[C@@H](CC(N)=O)C(=O)N[C@@H](CC(N)=O)C(=O)O)NC(=O)[C@H](CCCCN)NC(=O)[C@H](CSSC[C@H](NC(=O)[C@H](CCC(N)=O)NC(=O)[C@H](CCCCN)NC(=O)[C@@H]4CCCN4C(=O)[C@H](CO)NC(=O)[C@H]([C@@H](C)O)NC1=O)C(=O)N[C@@H](CC(C)C)C(=O)N[C@@H](CCCCN)C(=O)N1CCC[C@H]1C(=O)N3)NC(=O)[C@H](CCCCN)NC(=O)CNC(=O)[C@H](CC(N)=O)NC(=O)[C@H](CCSC)NC2=O)C(C)C [Ce1] (H-TVINVKCTSPKQCLKPCKDLYGPHAGAKCMNGKCKCYNN-OH; disulfide 7-29, 13-34, 17-36; N-terminus and C-terminus assumed) | much higher activity against the Kv1.2 channel than against the Kv1.1 channel |  |  | 0.01 ± 0.002 |  |  | 11 ± 5 | highest picomolar affinity |  |  |  |  |  |  |  |  | 
CC[C@H](C)[C@@H]1NC(=O)[C@@H]2CSSC[C@@H]3NC(=O)[C@H](CCCCN)NC(=O)[C@H](CCCNC(=N)N)NC(=O)[C@H](CC(N)=O)NC(=O)[C@H](CCSC)NC(=O)[C@H](CSSC[C@H](NC(=O)[C@H](CO)NC(=O)[C@@H](NC(=O)[C@H](CC(N)=O)NC(=O)[C@@H](NC(=O)[C@@H]4CCCN4C(=O)[C@@H](NC(=O)CN)C(C)C)[C@@H](C)CC)C(C)C)C(=O)N[C@@H]([C@@H](C)O)C(=O)NCC(=O)N[C@@H](CO)C(=O)N4CCC[C@H]4C(=O)N[C@@H](CCC(N)=O)C(=O)N2)NC(=O)[C@H](CCCCN)NC(=O)CNC(=O)[C@H](Cc2ccccc2)NC(=O)[C@H](CCCNC(=N)N)NC(=O)[C@H](CCSC)NC(=O)CNC(=O)[C@H](C)NC(=O)[C@H](CC(=O)O)NC(=O)[C@H](CCCCN)NC(=O)[C@H](CSSC[C@@H](C(=O)N[C@H](C(=O)N2CCC[C@H]2C(=O)N[C@@H](CCCCN)C(=O)O)[C@@H](C)O)NC(=O)[C@H](Cc2c[nH]cn2)NC3=O)NC(=O)[C@@H]2CCCN2C(=O)[C@H](CCCCN)NC1=O [AgTx2, agitoxin 2] |  |  |  |  |  |  |  |  | 0.25 ± 0.05 |  |  |  |  |  |  |  | 
CC[C@H](C)[C@@H]1NC(=O)CNC(=O)[C@H](Cc2ccccc2)NC(=O)[C@H](CCC(N)=O)NC(=O)[C@H](C)NC(=O)[C@H](CCCCN)NC(=O)[C@@H]2CSSC[C@@H](C(=O)N[C@@H](Cc3ccc(O)cc3)C(=O)N3CCC[C@H]3C(=O)N[C@@H](Cc3c[nH]cn3)C(=O)O)NC(=O)[C@H](CCCCN)NC(=O)[C@@H]3CSSC[C@H](NC(=O)[C@H](CCC(N)=O)NC(=O)[C@H](CCCCN)NC(=O)[C@@H]4CCCN4C(=O)[C@H](CO)NC(=O)[C@H]([C@@H](C)O)NC(=O)[C@@H](NC(=O)[C@H](CCCCN)NC(=O)[C@@H](NC(=O)[C@H](CC(=O)O)NC(=O)[C@@H](NC(=O)[C@@H](NC(=O)[C@@H](N)[C@@H](C)O)C(C)C)[C@@H](C)CC)C(C)C)CSSC[C@H](NC(=O)[C@H](CCCCN)NC(=O)[C@H](C)NC(=O)CNC(=O)[C@H](C)NC(=O)[C@H](CCCNC(=N)N)NC1=O)C(=O)N[C@@H](CCSC)C(=O)N[C@@H](CC(N)=O)C(=O)NCC(=O)N[C@@H](CCCCN)C(=O)N3)C(=O)N[C@@H](CC(C)C)C(=O)N1CCC[C@H]1C(=O)N1CCC[C@H]1C(=O)N2 [HgTx1, hongotoxin 1] (H-TVIDVKCTSPKQCLPPCKAQFGIRAGAKCMNGKCKCYPH-OH; disulfide 7-29, 13-34, 17-36; N-terminus and C-terminus assumed) |  |  |  | 0.02 ± 0.01 |  | approximately threefold | 0.03 ± 0.02 | very high affinity | 0.04 ± 0.01 | subnanomolar | subnanomolar | subnanomolar | nanomolar | displaced | displaced | displaced HgTx-G | displaced HgTx-G
